Reference: ChEMBL document CHEMBL1147274, “Isoflavans and a Stilbene from Wood of the Decay-Resistant Tropical Tree Diphysa robinioides” (1986)
Converted amounts (≈) assume the structure as drawn. The source made the active and inactive calls. The calls are words filed in the database; no cut-off is given here.

What was measured:
Staphylococcus aureus = test: Antibacterial activity against Staphylococcus aureus ATCC 13709; type: functional
Escherichia coli = test: Antibacterial activity against Escherichia coli ATCC 9637; type: functional
[1] = tested on: Salmonella enterica subsp. enterica serovar Gallinarum; test: Antibacterial activity against Salmonella gallinarum ATCC 9184; type: functional
[2] = tested on: Mycolicibacterium smegmatis; test: Antibacterial activity against Mycobacterium smegmatis ATCC 607; type: functional
Candida albicans = test: […] activity against Candida albicans ATCC 10231; type: functional
Pseudomonas aeruginosa = test: Antibacterial activity against Pseudomonas aeruginosa ATCC 27853; type: functional, organism-based
Klebsiella pneumoniae = test: Antibacterial activity against Klebsiella pneumoniae ATCC 10031; type: functional

SMILES: COc1ccc([C@H]2COc3c(ccc(O)c3CC=C(C)C)C2)c(O)c1
- MIC (Staphylococcus aureus): 6.25 µg/mL (≈ 18.4 µM)
- MIC (Escherichia coli): inactive
- MIC [1]: inactive
- MIC [2]: inactive
- MIC (Candida albicans): 12.5 µg/mL (≈ 36.7 µM)
- MIC (Pseudomonas aeruginosa): inactive
- MIC (Klebsiella pneumoniae): inactive

SMILES: O=C1c2c(O)cc(O)cc2OC(c2ccc(O)cc2)C1C1C(=O)c2c(O)cc(O)cc2OC1c1ccc(O)cc1 (stereo unspecified) [CHAMAEJASMIN]
- MIC (Staphylococcus aureus): 12.5 µg/mL (≈ 23 µM)
- MIC (Escherichia coli): inactive
- MIC [1]: inactive
- MIC [2]: inactive
- MIC (Candida albicans): inactive
- MIC (Pseudomonas aeruginosa): inactive
- MIC (Klebsiella pneumoniae): inactive

SMILES: CN[C@@H]1[C@H](O[C@H]2[C@H](O[C@H]3[C@H](O)[C@@H](O)[C@H](N=C(N)N)[C@@H](O)[C@@H]3N=C(N)N)O[C@@H](C)[C@]2(O)C=O)O[C@@H](CO)[C@H](O)[C@H]1O.CN[C@@H]1[C@H](O[C@H]2[C@H](O[C@H]3[C@H](O)[C@@H](O)[C@H](N=C(N)N)[C@@H](O)[C@@H]3N=C(N)N)O[C@@H](C)[C@]2(O)C=O)O[C@@H](CO)[C@H](O)[C@H]1O.O=S(=O)(O)O.O=S(=O)(O)O.O=S(=O)(O)O [STREPTOMYCIN SULFATE]
- MIC (Staphylococcus aureus): 5 µg/mL
- MIC (Escherichia coli): 5 µg/mL
- MIC [1]: 50 µg/mL
- MIC [2]: 1.25 µg/mL
- MIC (Candida albicans): inactive
- MIC (Pseudomonas aeruginosa): inactive
- MIC (Klebsiella pneumoniae): 2.5 µg/mL
